Values quoted from earlier work in patent US8133870B2, “Therapeutic furopyrimidines and thienopyrimidines” (BioCryst Pharmaceuticals, Inc., priority 2004, dated 2012).

System: HCV

NC(=O)c1ncn([C@@H]2O[C@H](CO)[C@@H](O)[C@H]2O)n1 [Ribavirin, 1-β-D-ribofuranosyl-1-1,2,4-triazole-3-carboxamide]
toxicity (ribavirin): significant toxicity
patients in whom serum amino transferase levels are reduced to normal (ribavirin alone, patients): 40%
serum levels of HCV-RNA (ribavirin alone, patients): does not lower serum levels of HCV-RNA
